The values below come from patent US20140314867A1, “VITAMIN K2 MICROSPHERES” (Medical and Pharmaceutical Industry Technology and …, priority 2013, published 2014).

Holding throughout (format): cell-based, human
The test system of assay [1] is MG-63 cells. The assay can be described thus: Cell viability analysis (MTT), cell number of co-cultured MG-63 cells. As to the method:
0.0001 g, 0.0005 g, 0.005 g, and 0.05 g of VK2 was fine weighed and sterilized by UV light in a sterile hood overnight, then added into 50 ml centrifuge tubes. 50 ml of H-DMEM containing 10% FBS was then added to prepare cell culture medium with different VK2 concentrations: 0 mg/mL, 0.002 mg/mL, 0.01 mg/mL, 0.1 mg/mL, and 1 mg/mL. H-DMEM containing 10% FBS was used to adjust the concentration of MG-63 cell solution to 1×10^4 cells/ml. 1 ml/well of cell solution was seeded to a 24-well plate and incubated in an incubator for 1 day to make cells adhere. Then, the culture medium was removed, 1 ml/well of cell culture medium with different VK2 concentration were added respectively and incubated for 1, 3, and 7 days. Cell viability analysis (MTT) and alkaline phosphatase activity assay (ALP) were conducted. Cell morphology was observed by an inverted microscope and recorded in photographs. 0.01 g of 0%, 0.01%, 0.1%, and 1.0% VK2MS was fine weighed and sterilized by UV light in a sterile hood overnight, then added into 50 ml centrifuge tubes. 50 ml of H-DMEM containing 10% FBS was then added to prepare cell culture medium with different VK2 concentrations. H-DMEM containing 10% FBS was used to adjust the concentration of MG-63 cell solution to 1×10^4 cells/ml. 1 ml/well of cell solution was seeded to a 24-well plate and incubated in an incubator for 1 day to make the cells adhere. Then, the culture medium was removed, 1 ml/well of cell culture medium with different VK2 concentration were added respectively and incubated for 1, 3, and 7 days. In addition, the cell culture medium without microspheres (MS) was added 1 ml/well and incubated for 1, 3, and 7 days as control groups. Subsequently, cell viability analyse (MTT) and alkaline phosphatase activity assays (ALP) were conducted. Cell morphology was observed by an inverted microscope and recorded by photographs. First, MTT was prepared as a 5 mg/mL reaction solution by PBS, then filtered by a 0.22 μm filter. 10% MTT reagent was prepared by H-DMEM, and then stored in the dark. After being cultured for 1 day, the cell culture medium was removed from the 24-well cell culture plate. The 24-well cell culture plate was washed twice by PBS. After the PBS was removed, 1 ml/well of 10% MTT reagent was added to the culture plate and reacted in an incubator (37° C., 5% CO2) in the dark for 4-5 hours. Purple crystal particles were produced at the bottom of culture plate after the reaction. The reactive solution was removed and 350 μl/well of DMSO solution was added. After being mixed, […] of dissolved solution was suctioned to a 96-well plate and the absorbance at 570 nm was detected by an ELISA reader. The reference wavelength was set as 650 nm. A cell standard curve can be made to reckon the cell number. The cell solution was adjusted to have a concentration of 5000, 10000, 25000, 50000, 75000, and 100000 cells/ml by H-DMEM containing 10% FBS then seeded into a 24-well plate, respectively. After 1 day, after the cells were adhered, an MTT cell viability analysis was conducted. Absorbance and cell numbers were used to make a standard curve, such that the cell number could be reckoned from the absorbance. A growth curve of MG-63 cells was made first, and then the cell growth rate could be obtained by dividing the cell viability by that of the control group which was detected by the MTT assay. The result shown in FIG. 9A can be obtained by converting the data from ELISA to a cell number according to the cell growth curve. In FIG. 9A, it is observed that the cell number of MG-63 co-cultured with VK2 is apparently lower than that of the control group. Moreover, the effect of cell growth inhibition becomes obvious with the increasing concentration of VK2. […]

Assay [2] relates to MG-63 cells. The assay can be described thus: Alkaline phosphatase (ALP) activity test in co-cultured MG-63 cells. Here is the method: 0.0001 g, 0.0005 g, 0.005 g, and 0.05 g of VK2 was fine weighed and sterilized by UV light in a sterile hood overnight, then added into 50 ml centrifuge tubes. 50 ml of H-DMEM containing 10% FBS was then added to prepare cell culture medium with different VK2 concentrations: 0 mg/mL, 0.002 mg/mL, 0.01 mg/mL, 0.1 mg/mL, and 1 mg/mL.
H-DMEM containing 10% FBS was used to adjust the concentration of MG-63 cell solution to 1×10^4 cells/ml. 1 ml/well of cell solution was seeded to a 24-well plate and incubated in an incubator for 1 day to make cells adhere. Then, the culture medium was removed, 1 ml/well of cell culture medium with different VK2 concentration were added respectively and incubated for 1, 3, and 7 days. Cell viability analysis (MTT) and alkaline phosphatase activity assay (ALP) were conducted. Cell morphology was observed by an inverted microscope and recorded in photographs. […]
The measurement of ALP is described below. After being cultured for 1 day, the cell culture medium was removed from the 24-well cell culture plate. Then, the 24-well cell culture plate was washed twice by PBS. After the PBS was removed, 200 μl/well of ALP extraction reagent pNPP65 (p-Nitrophenylphosphate) was added to the 24-well culture plate and reacted in an incubator (37° C., 5% CO2) in the dark for 30 minutes. Then, 50 μl of 1N sodium hydroxide was added to stop the reaction. 250 μl/well of supernatant was suctioned to a 96-well plate to detect the OD value at 405 nm by an ELISA reader. Activity of alkaline phosphatase (ALP) can be calculated by the formula below: […]
In this formula, A is the absorbance of a sample at 405 nm; Vt is the total reaction volume, 0.25 ml; Vs is the sample volume, 0.05 ml; t is the reaction time after adding pNPP65 (p-Nitrophenylphosphate), 30 minutes; c is mmol extinction coefficient of pNPP65 (p-Nitrophenylphosphate), 18.6 mM^−1 cm^−1; 1 is the optical path of the cuvette, 1 cm; 1000 is to convert the U/ml to U/l.

The subject of assay [3] is MG-63 cells. Described as above. Conditions: 0.02 mg/mL.

In the case of vitamin K2 [VK2], the cell number was 4.1±0.1 ×10^4 cells with MG-63 cells [1] (0.002 mg/mL of VK2, day 1); 6.6±0.1 ×10^4 cells in the assay with MG-63 cells [1] (0.002 mg/mL of VK2, day 3); 14.7±0.1 ×10^4 cells in the assay with MG-63 cells [1] (0.002 mg/mL of VK2, day 7); 2.0±0.0 ×10^4 cells with MG-63 cells [1] (1 mg/mL of VK2, day 1); 5.0±0.1 ×10^4 cells in the assay with MG-63 cells [1] (1 mg/mL of VK2, day 3); 2.1±0.1 ×10^4 cells in the assay with MG-63 cells [1] (1 mg/mL of VK2, day 7). In the assay with MG-63 cells [1] (MG-63 co-cultured with VK2, 1, 3, 7 days), the “effect on cell proliferation” value was “inhibits cell proliferation”. For the same substance, the “ALP value compared with control group” value in the assay with MG-63 cells [2] (0.002 mg/mL of VK2) is reported as “higher than that of the control group”. Also, the “ALP activity of a single cell” value came to 96.7±1.1 U/L-30 min-10^4 cells with MG-63 cells [2] (0.002 mg/mL of VK2, day 1); 62.4±0.9 U/L-30 min-10^4 cells in the assay on MG-63 cells [2] (0.002 mg/mL of VK2, day 3); 46.4±0.4 U/L-30 min-10^4 cells in the assay on MG-63 cells [2] (0.01 mg/mL of VK2, day 1); 19.8±0.1 U/L-30 min-10^4 cells in the assay with MG-63 cells [2] (0.01 mg/mL of VK2, day 3); 8.2±0.0 U/L-30 min-10^4 cells in the assay on MG-63 cells [2] (0.01 mg/mL of VK2, day 7); 70.4±1.7 U/L-30 min-10^4 cells with MG-63 cells [2] (1.0 mg/mL of VK2, day 7). For the same substance, the ALP value is 399.9±3.3 U/L-30 min in the assay with MG-63 cells [2] (0.002 mg/mL of VK2, day 1); 410.7±2.7 U/L-30 min with MG-63 cells [2] (0.002 mg/mL of VK2, day 3); 377.4±1.6 U/L-30 min with MG-63 cells [2] (0.002 mg/mL of VK2, day 7); 111.0±0.7 U/L-30 min in the assay with MG-63 cells [2] (0.01 mg/mL of VK2, day 1); 112.2±0.3 U/L-30 min with MG-63 cells [2] (0.1 mg/mL of VK2, day 3); 100.6±0.0 U/L-30 min with MG-63 cells [2] (0.1 mg/mL of VK2, day 7). The “effect on ALP activity of cells” value in the assay on MG-63 cells [3] is “enhance the ALP activity of cells”.
